Measured values taken from patent publication US6962931B2, “Self-emulsifying formulations of cholesteryl ester transfer protein inhibitors” (Pfizer Inc., priority 2001, dated 2005).

How the values were obtained:
Pharmacokinetics in dogs = type: in vivo, Male Beagle dogs; conditions: for Cmax / Tmax: male, Beagle, dog, plasma, po
Protocol: Male Beagle dogs (n=6) between the ages of 2-5 and weighing 6-12 kg were dosed with capsules followed by 50 mL of water. […] The dogs were either fasted or fed just prior to dosing with 14 g of dry dog food and 8 gm olive oil. The same set of dogs were used for all formulations, except where indicated. […]
Unless otherwise indicated, results are for the fasted state. Miglyol® softgels have a very low fasted exposure and thus a high food effect. The fasted exposure is higher than that for crystalline suspension, while the fed exposure using this high oil meal is the same. Thus Miglyol softgels provide a lower food effect than crystalline drug. At the same dose of 90 mgA, formulations such as A, O, and C that include surfactants and cosolvent have much higher fasted exposures and only a ca. 3× food effect. The fed exposures are also higher than for Miglyol® 812 softgels and crystalline drug. Poorer fasted exposure was obtained for Formulation WW, which contains a high level of ethyl lactate as a cosolvent.

[1] = Dynamic light scattering particle size analysis of emulsions; type: physicochemical
Protocol: Preliminary particle size analysis data has been obtained on selected formulations using a dynamic light scattering particle size analyzer (ZetaPals, Brookhaven Instruments, Inc.) for measurement of sub-micron particle distribution. The formulation solutions were diluted 1:100 in HPLC-grade water (previously filtered through a 0.22 μm syringe filter). The resulting mixture was gently inverted five times to create the emulsion. Each emulsion sample was then analyzed at a temperature of 37° C. Triplicate measurements were made at each time point (0, 30 min).

[2] = Extent of emulsification, droplet size by optical microscope; type: physicochemical
Protocol: The extent of emulsification was determined by mixing the preconcentrate and water in a ratio of 1:100 and 1:10 by gentle inversion (5×), visual inspection, and examination under an optical microscope, using a polarizing filter to check for the appearance of crystals. Droplet size determined by this approach is expressed as the upper limit for the average droplet size, since submicron droplets cannot be detected by this method.

[3] = Emulsion from oil solution plus equal volume of water: particle size and stability; type: physicochemical
Protocol: An emulsion was prepared by combining 1 volume of oil solution with an equal volume of de-ionized water. […] The emulsion is then stirred continuously to maintain homogeneity.
An emulsion was prepared by combining 1 volume of oil solution with an equal volume of de-ionized water. This mixture was stirred for 10 minutes and then vortex mixed for 2 minutes. […] It was stirred continuously to maintain homogeneity.
An emulsion was prepared by combining combining 1 volume of oil solution with an equal volume of de-ionized water. This mixture was stirred for 10 minutes and then vortex mixed for 2 minutes. […] It was stirred continuously to maintain homogeneity.

[4] = Equilibrium solubility in excipients, vehicles and emulsion preconcentrates; type: physicochemical
Protocol: The solubility of CETP inhibitors in excipients and in formulations was determined by adding an excess of compound to the medium in question. The mixture was agitated by rotation over a period of days at ambient temperature until the concentration in solution had reached an equilibrium as judged by similar measurements for consecutive time points. Concentrations were measured by filtration of aliquots with a PTFE syringe filter and assay by HPLC as described in Example 11.
The solubility of crystalline CETP inhibitors in representative vehicles was determined by adding an excess of compound to the vehicle in question. The mixture was agitated by rotation over a period of days at ambient temperature until the concentration in solution had reached equilibrium as judged by similar measurements for consecutive time points. Concentrations were measured by filtration of aliquots with a PTFE syringe filter and assayed by HPLC.
The concentrations of CETP inhibitor in each vehicle were assayed at intervals by dilution of aliquots into acetonitrile and gradient HPLC analysis on a Water Symmetry C-8 column (3.9×150 mm, 5 micron) at 30° C. at a flow rate of 1 mL/min. […] The detection method was UV absorbance at 210 nm.

[5] = Microsolubility estimate by repeated addition of vehicle; type: physicochemical
Protocol: (§1) For CETP inhibitors where quantities were limited, an estimate of solubility was obtained by addition of vehicle to a known quantity of the compound and mixing in an ultrasonicator bath for 90 minutes, followed by overnight equilibration at ambient temperature. Addition of vehicle was repeated until a solution was achieved.
as §1, with “limited or the samples were amorphous solids,” for “limited,”, “achieved. From the total volume of vehicle added to solubilize the CETP inhibitor compound, the solubility value, or so-called microsolubility, was calculated by the equation: Weight of sample (mgA)/vehicle volume (mL)=Microsolubility (mgA/mL)” for “achieved.”

[6] = 60 mg, fasted, Miglyol 812/Triacetin/Polysorbate 80/Capmul MCM (22/27/20/31)
[7] = preconcentrate Miglyol 812/Triacetin/Polysorbate 80/Capmul MCM 22/27/20/31 % v/v
[8] = equilibrium, vehicle Miglyol 812
[9] = equilibrium, vehicle Miglyol 812/propylene carbonate/Cremophor EL (60/20/20)
[10] = 90 mg, Fed, Miglyol 812/Triacetin/Cremophor RH40/Capmul MCM (20/30/20/30)
[11] = 90 mg, fasted, Miglyol 812/Triacetin/Cremophor RH40/Capmul MCM (20/30/20/30)

SMILES: CC[C@@H]1C[C@H](N(Cc2cc(C(F)(F)F)cc(C(F)(F)F)c2)C(=O)OC)c2cc(C(F)(F)F)ccc2N1C(=O)OC(C)C [Compound E, [2R,4S] 4-[(3,5-Bis-trifluoromethyl-benzyl)-methoxycarbonyl-amino]-2-ethyl-6-trifluoromethyl-3,4-dihydro-2H-quinoline-1-carboxylic acid isopropyl ester]
- AUG 0-tlast (Pharmacokinetics in dogs; fasted, 60 mg, 100 mg/mL in Miglyol 812/Triacetin/Polysorbate 80/Capmul MCM (22/27/20/31), Tlast 48 hr): 2900 ± 670 ng·h/mL
- Cmax (Pharmacokinetics in dogs; [6]): 200 ± 140 ng/mL
- Tmax (Pharmacokinetics in dogs; [6]): 1.5 h
- Mean Diam. ([1]; 30 min., 100 mg/mL in Miglyol 812/Triacetin/Polysorbate 80/Capmul MCM (22/27/20/31)): 175 nm
- Mean Diam. ([1]; 30 min., 200 mg/mL in Miglyol 812/Triacetin/Polysorbate 80/Capmul MCM (22/27/20/31)): 251 ± 45 nm
- Mean Diam. ([1]; Initial, 100 mg/mL in Miglyol 812/Triacetin/Polysorbate 80/Capmul MCM (22/27/20/31)): 181 nm
- Mean Diam. ([1]; Initial, 200 mg/mL in Miglyol 812/Triacetin/Polysorbate 80/Capmul MCM (22/27/20/31)): 239 ± 17 nm
- Ave Droplet Size (1:100 dilution) [2, 7]: <2 μ
- chemical degradation or crystallization ([3]; Example 15 oil or emulsion after storage for 24 hr, HPLC, microscopy): No chemical degradation based on HPLC analysis or crystallization based on microscopic examination was detected
- average particle size of emulsion ([3]; Example 15 oil solution (Miglyol 812/propylene carbonate/Cremophor EL, 275 mg/g) plus equal volume water): less than 10 microns
- Solubility [4, 8]: 167 mgA/ml
- Solubility [4, 9]: 394 mgA/ml
- Solubility ([4]; equilibrium, vehicle Olive oil): 39 mgA/ml
- Solubility [4, 7]: 308 mgA/mL

SMILES: CC[C@@H]1C[C@H](N(Cc2cc(C(F)(F)F)cc(C(F)(F)F)c2)C(C)=O)c2cc(C(F)(F)F)ccc2N1C(=O)OC(C)C [Compound D, [2R,4S] 4-[acetyl-(3,5-bis-trifluoromethyl-benzyl)-amino]-2-ethyl-6-trifluoromethyl-3,4-dihydro-2H-quinoline-1-carboxylic acid isopropyl ester]
- AUG 0-tlast (Pharmacokinetics in dogs; Fed, 90 mg, Miglyol 812/Triacetin/Cremophor RH40/Capmul MCM (20/30/20/30), Tlast 24 hr): 4840 ± 1230 ng·h/mL
- AUG 0-tlast (Pharmacokinetics in dogs; fasted, 90 mg, 100 mg/mL in Miglyol 812/Triacetin/Cremophor RH40/Capmul MCM (20/30/20/30), Tlast 24 hr): 3450 ± 960 ng·h/mL
- Cmax (Pharmacokinetics in dogs; [10]): 1200 ± 410 ng/mL
- Tmax (Pharmacokinetics in dogs; [10]): 1.5 h
- Cmax (Pharmacokinetics in dogs; [11]): 860 ± 310 ng/mL
- Tmax (Pharmacokinetics in dogs; [11]): 1.7 h
- chemical degradation or crystallization ([3]; Example 19 oil after storage for 8 days or emulsion after 24 hr): No chemical degradation based on HPLC analysis or crystallization based on microscopic examination was detected
- Solubility ([4]; equilibrium, vehicle Capmul MCM): 58 mgA/ml
- Solubility ([4]; equilibrium, vehicle Cremophor EL): 18 mgA/ml
- Solubility [4, 8]: 61 mgA/ml
- Solubility ([4]; equilibrium, vehicle Miglyol 812/Cremophor EL 80/20): 51 mgA/ml
- Solubility [4, 9]: 208 mgA/ml
- Solubility ([4]; equilibrium, vehicle Olive oil): 13 mgA/ml
- Solubility ([4]; equilibrium, vehicle Olive oil/Cremophor EL 80/20): 14 mgA/ml
- Solubility ([4]; equilibrium, vehicle Triacetin): 239 mgA/ml
- Solubility ([4]; preconcentrate Miglyol 812/Triacetin/Cremophor RH40/Capmul MCM 20/30/20/30 % v/v): 172 mgA/mL

SMILES: CCC(CC)CC1(C(=O)Nc2ccccc2SC(=O)C(C)C)CCCCC1 [Compound B, Propanethioic acid, 2-methyl-, S-[2-[[[1-(2-ethylbutyl)cyclohexyl]carbonyl]amino]phenyl]ester]
- Solubility ([5]; Capmul MCM, oil or lipid, thermodynamic from solid, read-out: Microsolubility): < 100 mg/mL
- Solubility ([5]; Crodamol GTCC, oil or lipid, thermodynamic from solid, read-out: Microsolubility): < 20 mg/mL
- Solubility ([5]; Crodamol GTCC/Capmul MCM/Polysorbate 80 (40/40/20), oil or lipid, thermodynamic from solid, read-out: Microsolubility): < 100 mg/mL
- Solubility ([5]; Olive oil, oil or lipid, thermodynamic from solid, read-out: Microsolubility): < 100 mg/mL
- Solubility ([5]; PEG 400, organic solvent or mixture, thermodynamic from solid, read-out: Microsolubility): < 100 mg/mL
- Solubility ([5]; oil or lipid, thermodynamic from solid, read-out: Microsolubility): < 100 mg/mL
- Solubility ([5]; preconcentrate Miglyol 812/Triacetin/Polysorbate 80/Capmul MCM 20/30/20/30 % v/v, amorphous solid): ≧100 mgA/mL
- Ave Droplet Size (1:100 dilution) ([2]; preconcentrate Miglyol 812/Triacetin/Polysorbate 80/Capmul MCM 20/30/20/30 % v/v): <5 μ
